From US7964531B2, “3-phenoxy-4-pyridazinol derivatives and herbicidal composition containing the same” (Mitsui Chemicals Agro, Inc., priority 2001, dated 2011) come the findings set out here.

The structures appear in SMILES notation.

Common to all, as to type: in vivo
Common to all, as to settings: wettable powder applied 3 days after transplanting, judged after 25 days

In series [1] the test system is annual broad-leaved weeds (Lindernia spp., Rotala indica). The experiment in a line: Test Example 1: herbicidal effects, paddy-field pot test. Summed up:
(§1)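 Greenhouse, flooded paddy soil; weeds from seed (top 1 cm), C. serotinus from germinated tubers, rice transplanted at 2.2-leaf stage. WP diluted in water, applied to pot day 3 post-transplant. Scored day 25 post-treatment, 0–5 inhibition scale.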

A further series has as its system Cyperus serotinus. The description is as above. Summed up: as §1
The test system of series [2] is barnyardgrass (Echinochloa oryzicola Vasing.). The description is as above. Summed up: as §1
A further series concerns Scirpus joncoides. The series is described as above. Summed up:
as §1

In series [3] the test system is transplanted paddy-field rice. As to the kind of experiment: Test Example 1: crop injury against transplanted paddy-field rice. Summed up:
as §1

`Cc1ccc(C)c(Oc2nnc(Cl)cc2O)c1C` [Example 295]: the “Herbicidal effects Broad leaf” value in series [1] (chemical dosage 12.5 g/a) and in series [1] (chemical dosage 25 g/a) was 5 (Growth inhibition rate; 91 to 100%) each time. The “Herbicidal effects Cyperus serotinus” value with Cyperus serotinus (chemical dosage 12.5 g/a) and with Cyperus serotinus (chemical dosage 25 g/a) was 5 (Growth inhibition rate; 91 to 100%) throughout. The results for the “Herbicidal effects Barnyard grass” value in series [2] (chemical dosage 12.5 g/a) and in series [2] (chemical dosage 25 g/a) were 0 (Growth inhibition rate; 0 to 10%) and 1 (Growth inhibition rate; 11 to 30%), respectively. The “Herbicidal effects Scirpus joncoides” value with Scirpus joncoides (chemical dosage 12.5 g/a) and in the series with Scirpus joncoides (chemical dosage 25 g/a) was 5 (Growth inhibition rate; 91 to 100%) in each case. The “Crop injury against transplanted rice” value in series [3] (chemical dosage 12.5 g/a) and in series [3] (chemical dosage 25 g/a) was 0 (Growth inhibition rate; 0 to 10%) in each case.

As to `Cc1ccc(C2CC2)c(Oc2nnc(Cl)cc2O)c1C` [Example 296], the “Herbicidal effects Broad leaf” value in series [1] (chemical dosage 10 g/a) and in series [1] (chemical dosage 20 g/a) was 5 (Growth inhibition rate; 91 to 100%) throughout. Further, the “Herbicidal effects Cyperus serotinus” value in the series with Cyperus serotinus (chemical dosage 10 g/a) and in the series on Cyperus serotinus (chemical dosage 20 g/a) was 5 (Growth inhibition rate; 91 to 100%) throughout. The “Herbicidal effects Barnyard grass” value in series [2] (chemical dosage 10 g/a) was 1 (Growth inhibition rate; 11 to 30%); in series [2] (chemical dosage 20 g/a), 2 (Growth inhibition rate; 31 to 50%). Besides, the “Herbicidal effects Scirpus joncoides” value in the series with Scirpus joncoides (chemical dosage 10 g/a) and with Scirpus joncoides (chemical dosage 20 g/a) was 5 (Growth inhibition rate; 91 to 100%) in each case. For the same molecule, the “Crop injury against transplanted rice” value in series [3] (chemical dosage 10 g/a) and in series [3] (chemical dosage 20 g/a) was 0 (Growth inhibition rate; 0 to 10%) each time.

For the molecule `CSCc1c(C)ccc(C)c1Oc1nnc(Cl)cc1O` [Example 303], the “Herbicidal effects Broad leaf” value in series [1] (chemical dosage 12.5 g/a) is 3 (Growth inhibition rate; 51 to 70%); in series [1] (chemical dosage 25 g/a) it was 4 (Growth inhibition rate; 71 to 90%). The “Herbicidal effects Cyperus serotinus” value in the series on Cyperus serotinus (chemical dosage 12.5 g/a) and in the series on Cyperus serotinus (chemical dosage 25 g/a) was 5 (Growth inhibition rate; 91 to 100%) throughout. Further, the entries for the “Herbicidal effects Barnyard grass” value in series [2] (chemical dosage 12.5 g/a) and in series [2] (chemical dosage 25 g/a) were 0 (Growth inhibition rate; 0 to 10%) and 1 (Growth inhibition rate; 11 to 30%), respectively. The “Herbicidal effects Scirpus joncoides” value was 3 (Growth inhibition rate; 51 to 70%) in the series with Scirpus joncoides (chemical dosage 12.5 g/a) and 4 (Growth inhibition rate; 71 to 90%) in the series on Scirpus joncoides (chemical dosage 25 g/a). Moreover, the “Crop injury against transplanted rice” value in series [3] (chemical dosage 12.5 g/a) and in series [3] (chemical dosage 25 g/a) was 0 (Growth inhibition rate; 0 to 10%) in each case.

With `Oc1cc(Cl)nnc1Oc1c(Br)ccc2c1CCC2` [Example 304], the “Herbicidal effects Broad leaf” value in series [1] (chemical dosage 10 g/a) and in series [1] (chemical dosage 20 g/a) was 5 (Growth inhibition rate; 91 to 100%) throughout. In addition, the “Herbicidal effects Cyperus serotinus” value in the series with Cyperus serotinus (chemical dosage 10 g/a) is on record as 4 (Growth inhibition rate; 71 to 90%); with Cyperus serotinus (chemical dosage 20 g/a), 5 (Growth inhibition rate; 91 to 100%). Moreover, the “Herbicidal effects Barnyard grass” value in series [2] (chemical dosage 10 g/a) and in series [2] (chemical dosage 20 g/a) was 4 (Growth inhibition rate; 71 to 90%) throughout. Moreover, the entries for the “Herbicidal effects Scirpus joncoides” value in the series on Scirpus joncoides (chemical dosage 10 g/a) and with Scirpus joncoides (chemical dosage 20 g/a) were 4 (Growth inhibition rate; 71 to 90%) and 5 (Growth inhibition rate; 91 to 100%), respectively. Further, the “Crop injury against transplanted rice” value in series [3] (chemical dosage 10 g/a) and in series [3] (chemical dosage 20 g/a) was 0 (Growth inhibition rate; 0 to 10%) each time.

Regarding `Cc1ccc2c(c1Oc1nnc(Cl)cc1O)CCC2` [Example 305], in series [1] (chemical dosage 10 g/a), the “Herbicidal effects Broad leaf” value is reported as 5 (Growth inhibition rate; 91 to 100%). Besides, the “Herbicidal effects Cyperus serotinus” value in the series with Cyperus serotinus (chemical dosage 10 g/a) is 5 (Growth inhibition rate; 91 to 100%). Further, in series [2] (chemical dosage 10 g/a), the “Herbicidal effects Barnyard grass” value was 1 (Growth inhibition rate; 11 to 30%). Besides, the “Herbicidal effects Scirpus joncoides” value with Scirpus joncoides (chemical dosage 10 g/a) is listed as 5 (Growth inhibition rate; 91 to 100%). In addition, in series [3] (chemical dosage 10 g/a), the “Crop injury against transplanted rice” value was 0 (Growth inhibition rate; 0 to 10%).

Consider `CCc1ccc2c(c1Oc1nnc(Cl)cc1O)CCC2` [Example 306], for which the “Herbicidal effects Broad leaf” value in series [1] (chemical dosage 10 g/a) is listed as 5 (Growth inhibition rate; 91 to 100%). For the same molecule, the “Herbicidal effects Cyperus serotinus” value with Cyperus serotinus (chemical dosage 10 g/a) is 5 (Growth inhibition rate; 91 to 100%). The “Herbicidal effects Barnyard grass” value in series [2] (chemical dosage 10 g/a) was 1 (Growth inhibition rate; 11 to 30%). Moreover, the “Herbicidal effects Scirpus joncoides” value in the series with Scirpus joncoides (chemical dosage 10 g/a) is recorded as 5 (Growth inhibition rate; 91 to 100%). Also, in series [3] (chemical dosage 10 g/a), the “Crop injury against transplanted rice” value was 0 (Growth inhibition rate; 0 to 10%).

For `Oc1cc(Cl)nnc1Oc1c(C2CC2)ccc2c1CCC2` [Example 307], the “Herbicidal effects Broad leaf” value in series [1] (chemical dosage 10 g/a) and in series [1] (chemical dosage 20 g/a) was 5 (Growth inhibition rate; 91 to 100%) in each case. The “Herbicidal effects Cyperus serotinus” value with Cyperus serotinus (chemical dosage 10 g/a) and with Cyperus serotinus (chemical dosage 20 g/a) was 5 (Growth inhibition rate; 91 to 100%) each time. Also, the “Herbicidal effects Barnyard grass” value in series [2] (chemical dosage 10 g/a) is listed as 3 (Growth inhibition rate; 51 to 70%); in series [2] (chemical dosage 20 g/a) it was 4 (Growth inhibition rate; 71 to 90%). In addition, the “Herbicidal effects Scirpus joncoides” value in the series on Scirpus joncoides (chemical dosage 10 g/a) and in the series on Scirpus joncoides (chemical dosage 20 g/a) was 5 (Growth inhibition rate; 91 to 100%) in each case. The “Crop injury against transplanted rice” value in series [3] (chemical dosage 10 g/a) and in series [3] (chemical dosage 20 g/a) was 0 (Growth inhibition rate; 0 to 10%) throughout.

`Cc1ccc2c(c1Oc1nnc(Cl)cc1O)OCC2` [Example 308]: the “Herbicidal effects Broad leaf” value in series [1] (chemical dosage 10 g/a) and in series [1] (chemical dosage 20 g/a) was 5 (Growth inhibition rate; 91 to 100%) in each case. The “Herbicidal effects Cyperus serotinus” value with Cyperus serotinus (chemical dosage 10 g/a) and in the series with Cyperus serotinus (chemical dosage 20 g/a) was 5 (Growth inhibition rate; 91 to 100%) each time. Also, the results for the “Herbicidal effects Barnyard grass” value in series [2] (chemical dosage 10 g/a) and in series [2] (chemical dosage 20 g/a) were 2 (Growth inhibition rate; 31 to 50%) and 4 (Growth inhibition rate; 71 to 90%), respectively. The “Herbicidal effects Scirpus joncoides” value was 4 (Growth inhibition rate; 71 to 90%) in the series on Scirpus joncoides (chemical dosage 10 g/a) and 5 (Growth inhibition rate; 91 to 100%) in the series on Scirpus joncoides (chemical dosage 20 g/a). Moreover, the “Crop injury against transplanted rice” value in series [3] (chemical dosage 10 g/a) and in series [3] (chemical dosage 20 g/a) was 0 (Growth inhibition rate; 0 to 10%) each time.

As to `Oc1cc(Cl)nnc1Oc1c(C2CC2)ccc2ccoc12` [Example 311], the “Herbicidal effects Broad leaf” value in series [1] (chemical dosage 10 g/a) and in series [1] (chemical dosage 20 g/a) was 5 (Growth inhibition rate; 91 to 100%) throughout. Moreover, the “Herbicidal effects Cyperus serotinus” value in the series with Cyperus serotinus (chemical dosage 10 g/a) is 4 (Growth inhibition rate; 71 to 90%); with Cyperus serotinus (chemical dosage 20 g/a), 5 (Growth inhibition rate; 91 to 100%). For the same molecule, the “Herbicidal effects Barnyard grass” value in series [2] (chemical dosage 10 g/a) is listed as 1 (Growth inhibition rate; 11 to 30%); in series [2] (chemical dosage 20 g/a) it was 3 (Growth inhibition rate; 51 to 70%). Further, the figures for the “Herbicidal effects Scirpus joncoides” value in the series with Scirpus joncoides (chemical dosage 10 g/a) and in the series on Scirpus joncoides (chemical dosage 20 g/a) were 4 (Growth inhibition rate; 71 to 90%) and 5 (Growth inhibition rate; 91 to 100%), respectively. Moreover, the “Crop injury against transplanted rice” value in series [3] (chemical dosage 10 g/a) and in series [3] (chemical dosage 20 g/a) was 0 (Growth inhibition rate; 0 to 10%) throughout.
